Measured values reported in patent publication US20260055364A1, “Methods for Improving Sperm Function and Fertilizing Ability for Assisted Reproduction Techniques” (Consejo Nacional de Investigaciones Cientificas y Técnicas …, priority 2022, published 2026).

What was measured:
human sperm [1] = assay: Sperm motility analysis (CASA) of human sperm after ionophore and/or temperature treatment; format: cell-based; conditions: 0.5 μM for 2 min before incubation at 40° C. for 30 min; FIG. 2A
Description: Sperm Motility Analysis: Aliquots of 9.7 μl of sperm suspensions were placed on slides under 18 mm×18 mm coverslips, obtaining a preparation depth of 30 μm, and maintained at 37° C. using a temperature-controlled stage. Sperm motility parameters were evaluated using the Sperm Class Analyzer® system (SCA v.6.2.0.1., Microptic SL, Barcelona, Spain), acquiring 60 frames per second. At least 5 microscopic fields and 300 sperm were analyzed. The following parameters were assessed: curvilinear velocity (VCL, μm/s), straight line velocity (VSL, μm/s), average path velocity (VAP, μm/s), linearity ([…]), straightness (STR×100, %), wobble (WOB: VAP/VCL×100, a measure of sperm head side to side movement, %), amplitude of lateral head displacement (ALH, μm) and beat cross frequency (BCF, Hz). Sperm motility was measured and classified as follows: rapid progressive (VCL≥35 μm/s; STR≥80%), medium progressive (VCL≥15 μm/s; STR≥80%), in situ (VCL<15 μm/s; VAP≥5 μm/s) and immotile (VAP<5 μm/s). Percentages of total (rapid progressive+medium progressive+in situ) and progressive (rapid+medium progressive) motility were recorded. Drifting was set in 25 μm/s. Sperm were considered hyperactivated when presenting VCL≥150 μm/s, LIN<50% and ALH≥3.5 μm.
Semen samples from healthy men were processed by density gradient centrifugation as stated in Example 1. […]

mouse sperm = conditions: cited from earlier work
human sperm [2] = conditions: high-concentration ionophore treatment and removal; cited from earlier work
sperm = conditions: cited from earlier work

For `CNc1ccc2oc(C[C@H]3O[C@@]4(CC[C@H]3C)O[C@H]([C@H](C)C(=O)c3ccc[nH]3)[C@H](C)C[C@H]4C)nc2c1C(=O)O` [A23187], the “levels of HA compared to control” value (human sperm [1]) is given as “higher levels of HA”, the “hyperactivation after removal of the ionophore” value (mouse sperm; 10-20 μM for 10 min, then removal, Tateno et al) is given as “acquires HA” and the sperm motility (mouse sperm; 10-20 μM for 10 min, Tateno et al) is given as “immobilizes”. For the same molecule, the “fertility of sperm from CatSper1−/−, Slo3−/− and Adcy10−/− knock-out lines” value (mouse sperm; 10-20 μM for 10 min with posterior removal, Navarrete et al (2016)) was “overcomes infertility”, the “motility after ionophore treatment” value (human sperm [2]) was “does not regain motility” and the “sperm HA” value (sperm; 0.5 and 1 μM) was “provoked sperm HA without immobilization”. The sperm motility (sperm; 5-10 μM, in a few minutes) was “immobilized sperm” and the “intracellular Ca2+ concentrations” value (sperm; 5-10 μM) was “substantially elevated”.
